Test results from patent US20110091931A1, “Methods and Kits for Determining Oxygen Free Radical (OFR) Levels in Animal and Human Tissues as a Prognostic Marker for Cancer and Other Pathophysiologies” (COLBY PHARMACEUTICAL COMPANY, priority 2009, published 2011).
“Also recorded” adds a separate entry of the source. Where two headings read alike, the source gives them in different places.

What was measured:
LNCaP cells [1] = experiment: HPLC quantitation of polyamine and acetyl polyamine levels in LNCaP cells; assay type: cell-based, human
Excerpt: This method is routinely used in the analytical laboratory of the core facility of Cancer Centers and was accessible for quantitative assays necessary for the PK/PD determinations. […] Each data point was an average of two determinations where sample cell pellets were collected from three independent experiments.

[2] = Observed adverse side effects of CPC-200 treatment in vivo
TRAMP tumors = experiment: Chemopreventive efficacy against TRAMP tumors (tumor development, survival, PET-CT); assay type: in vivo, mouse
Protocol: Mice are treated with the optimal dose regimen and A cohort of 10 mice from each treatment will be euthanized at 24 weeks of age, when primary tumors are evident in the control group and the tumors collected for pharmacology, necropsy and other toxicity and tumor burden analyses. […] The remaining 20 mice per condition were followed for survival. Body weights and tumor volumes were measured once weekly throughout the study. A cohort of 10 mice in this treatment group is also monitored over the course of drug treatment by PET-CT scan for tumor growth and metastases. Each mouse is injected with ^124I labeled NM-404 per standard protocol and imaged on the microPET-microCT scanner.

LNCaP cells [3] = experiment: DCF dye oxidation assay of androgen (R1881) induced ROS production; assay type: cell-based, human
Protocol: SSAT induction is a major source of androgen induced oxidative stress. In order to confirm that SSAT was the major source of androgen induced oxidative stress, we developed and used a stable LNCaP cell clone transfected with plasmid transcribing siRNA designed to silence SSAT mRNA expression. The SSAT mRNA level in these cells was determined by qRT-PCR method. In the cells transfected only with the vector, the SSAT mRNA level increased by over 8-fold after 96 h treatment with R1881, whereas in cells stably transfected with SSAT siRNA (si22), R1881 under similar treatment condition induced less than 2-fold increase in the SSAT transcript, showing over 75% silencing of SSAT mRNA expression. The ROS production induced by androgen analog R1881 in these cells was measured by DCF dye oxidation assay. The green fluorescence of oxidized DCF in androgen treated LNCaP cells was shown. The effect of SSAT silencing on the R1881 induced ROS production measured by DCF assay was also shown. The ratio of DCF fluorescence (green):DNA fluorescence (blue) for each of the treated well of a 96 well plate normalized to that of the average of control untreated wells represents the ROS level per cell relative to that in control untreated cells. The data points are the mean of numbers obtained from repeat experiments using thirty identically treated wells.
Each data point was an average of readings from six wells repeated twice in triplicates. […] The ROS levels of all CPC-200 pretreated cells were normalized to the ROS levels of cells treated with CPC-200 alone.

[4] = tested on: prostate tissue in TRAMPxFVB animals; experiment: In vivo hydroethidine (HEt) dye oxidation in prostate tissue; parameters: species or system mouse
Excerpt: In parallel to standardizing and validating quantitation of cellular fluorescence intensities with the Bioimager system, we also standardized conditions for fluorescence dye oxidation in animal tissues in vivo and in human tissue ex vivo using standard fluorescence microscopy. For these studies, another dye hydroethidine (HEt) was used. HEt in reduced form is colorless. It is oxidized by the ROS superoxide to ethidium (E^+). The intense fluorescence of E^+ion can be monitored at 488 excitation/595 emission frequencies at sub-nanomolar concentrations. […] After sacrifice, animals were exsanguinated to reduce fluorescence interference from blood hemoglobin. […] Unlike what observed in DCF dye oxidation assay in LNCaP cells where nuclei are more fluorescent than are the cytoplasms (FIG. 5B), the HEt dye fluorescence in the cytoplasm of the normal prostatic lumen is more than that in the nuclei. […] This is ascertained when the fluorescence intensities of HEt dye in the human tumor and normal tissue ROS are quantitated, as described herein.
We standardized the in vivo method of Hydroethidine (HEt) dye oxidation. […] Prostate tissues in paraffin blocks were sectioned on a microtome, thin sections were de-paraffinized and observed under a fluorescence microscope at 480 nm excitation and 600 nm emission wavelengths. […]

Androgen Receptor (AR) = Androgen Receptor (AR) (Homo sapiens, UniProt P10275, T878A); conditions: LNCaP cells; for fluorescence score, geometric mean / fluorescence score, mean after logarithmic transformation: 40 cells
Protocol: The quantitation of subcellular fluorescence was further validated using a known system—nuclear translocation of AR in LNCaP cells treated with androgen (dihydrotestosterone) or androgen analog metribolone. […] LNCaP cells in charcoal stripped androgen depleted medium are grown for 6 days in the presence of low (0.05 nM) metribolone and 4 more days in the presence of high (1 nM) metribolone. […] For objective analysis of the response, a quantitation of the IHC fluorescence is necessary. The Bioimager was used to quantitate the IHC fluorescence of AR in the nuclei and in the cytoplasm of about 40 cells from four random areas of the microscopic field from each plate.

[5] = tested on: SSAT (spermidine/spermine acetyl transferase) gene; experiment: DNA microarray analysis of gene expression (Affymetrix Gene chip Array) in LNCaP cells; assay type: cell-based, human; conditions: 1 nM R1881, 96 h vs untreated
Protocol: SSAT induction is a mechanism of ROS production in CaP cells. In our search for the biochemical mechanism and convenient diagnostic monitoring of androgen-induced ROS production in prostate cells, a DNA microarray analysis of gene expression was also performed using the Affymetrix Gene chip Array We used untreated androgen dependent LNCaP cells and cells treated with 1 nM androgen […] (a well-accepted androgen analog routinely used due to its stability) for 96 h for these studies. […] We noted with considerable interest that among the list of genes that are overexpressed by more than an order of magnitude after androgen-treatment, SSAT is the only enzyme that is directly related to a ROS-generating biochemical pathway.

[6] = tested on: LNCaP human prostate cancer cells; conditions: 1 nM metribolone, 96 h; cited from earlier work
SSAT = SSAT mRNA level by qRT-PCR in LNCaP cells; assay type: cell-based, human
Protocol: Each data point was an average of readings from six identically treated LNCaP prostate cancer cell sample wells with readings repeated twice in triplicate sets.
In order to confirm that SSAT was the major source of androgen induced oxidative stress, we developed and used a stable LNCaP cell clone transfected with plasmid transcribing siRNA designed to silence SSAT mRNA expression. The SSAT mRNA level in these cells was determined by qRT-PCR method. […] The ratio of DCF fluorescence (green):DNA fluorescence (blue) for each of the treated well of a 96 well plate normalized to that of the average of control untreated wells represents the ROS level per cell relative to that in control untreated cells. The data points are the mean of numbers obtained from repeat experiments using thirty identically treated wells.

[7] = tested on: LNCaP human prostate cancer cells; experiment: DCFH dye oxidation kinetics (ROS, v0) in nuclei and cytoplasm of LNCaP cells; assay type: cell-based; conditions: metribolone treatment over 24-96 h
Protocol: Standardization of cell-based fluorescence quantitation assay. We standardized the BD Pathway Bioimager quantitation of cellular ROS using a well-established cell culture based system. […] The ROS levels in these published studies were determined by monitoring DCFH dye oxidation, where DCFH is oxidized to DCF by ROS to yield quantifiable green fluorescence. The DCF fluorescence in live cell cytoplasm and nuclei (FIG. 2B) were quantitated by using the Hoechst 33342 dye staining of the cell nuclei (blue fluorescence in FIG. 2) that allows for auto focusing, positioning and mapping the contour of the cell nuclei and cytoplasms.
(1) Kinetics of DCF dye oxidation: Oxidation of DCFH to fluorescence DCF dye is a relatively fast reaction that is usually complete within 30-60 minutes. […] Curve fitting of the first 20-30 min of the plot of DCF fluorescence intensity vs. time with a pseudo-first order reaction kinetics yields the initial velocity (v0) values of the reaction (see below), which is directly proportional to the ROS concentration at the time point of DCF dye addition.
(1) Real-time kinetics of DCF dye oxidation in cell nuclei and cytoplasm: DCF dye oxidation kinetics in the nuclei and cytoplasm of LNCaP cells were determined using the BD Bioimager software coupled with Sigmaplot curve-fitting program. […]

prostate cancer cells = conditions: androgen-dependent and androgen-independent prostate cancer cells; cited from earlier work

Chain of Androgen Receptor (AR) (P10275 whole entry T878A): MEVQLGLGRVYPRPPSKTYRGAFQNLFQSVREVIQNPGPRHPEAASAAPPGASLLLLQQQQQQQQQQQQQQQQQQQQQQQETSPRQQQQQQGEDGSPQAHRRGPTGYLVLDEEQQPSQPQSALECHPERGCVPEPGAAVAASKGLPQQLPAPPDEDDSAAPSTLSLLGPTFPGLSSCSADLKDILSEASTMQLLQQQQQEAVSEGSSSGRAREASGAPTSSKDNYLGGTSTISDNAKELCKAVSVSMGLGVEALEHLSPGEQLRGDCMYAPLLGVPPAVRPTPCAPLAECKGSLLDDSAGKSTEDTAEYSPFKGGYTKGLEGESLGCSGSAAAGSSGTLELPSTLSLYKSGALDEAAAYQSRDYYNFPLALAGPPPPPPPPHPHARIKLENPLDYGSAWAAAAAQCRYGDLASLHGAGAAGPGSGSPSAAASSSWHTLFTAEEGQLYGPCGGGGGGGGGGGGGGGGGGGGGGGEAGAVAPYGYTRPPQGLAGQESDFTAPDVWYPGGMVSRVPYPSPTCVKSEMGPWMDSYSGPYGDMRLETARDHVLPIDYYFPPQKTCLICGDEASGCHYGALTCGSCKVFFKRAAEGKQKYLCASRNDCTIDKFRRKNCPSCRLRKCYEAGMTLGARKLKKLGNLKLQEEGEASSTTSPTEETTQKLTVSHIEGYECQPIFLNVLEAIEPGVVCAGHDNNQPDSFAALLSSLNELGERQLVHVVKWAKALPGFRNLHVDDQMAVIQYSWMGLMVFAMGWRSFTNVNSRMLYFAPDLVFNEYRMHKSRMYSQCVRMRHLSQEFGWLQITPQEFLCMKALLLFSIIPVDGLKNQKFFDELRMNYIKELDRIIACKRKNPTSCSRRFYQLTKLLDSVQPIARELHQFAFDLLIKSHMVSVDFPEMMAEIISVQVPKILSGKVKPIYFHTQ

## N,N′-bis(butadienyl)-1,4-butanediamine [CPC-200]
LNCaP cells [1]; 24 h CPC-200 pretreatment of R1881-treated cells
  R1881 induced increase in putrescine and spermidine: almost completely blocked
LNCaP cells [1]; CPC-200 treatment alone
  effect on most cellular polyamine levels: little or no significant effect
[2]
  adverse side effects: without any observable adverse side effects
TRAMP tumors; TRAMP mice
  overall survival: greatly increases; also recorded: markedly increased
TRAMP tumors; TRAMP model
  time to spontaneous prostate tumor development: markedly delays; also recorded: greatly delayed
TRAMP tumors; TRxF male mice, scans at age 8, 12, 18 and 24 weeks
  prostate tumor by PET-CT scan: no prostate tumor
LNCaP cells [3]; LNCaP cells, 24 h pretreatment with 25 μM CPC-200, R1881 96 h
  R1881 (≧1 nM) induced ROS production: effectively blocked
LNCaP cells [3]; LNCaP cells, CPC-200 treatment alone (25 μM)
  cellular ROS levels: minor decrease
LNCaP cells [3]; summary statement
  androgen-induced oxidative stress in cultured androgen-dependent human prostate cancer cells: significantly reduces oxidative stress; also recorded: almost completely blocked
[4]; TRAMP model, summary statement
  oxidative stress in prostate tissue / pre-neoplastic lesions in vivo: significantly reduces oxidative stress; also recorded: unambiguous reduction in oxidative stress
[4]; TRAMPxFVB mice, six administrations of 25 mg/kg CPC-200 i.p. once every two weeks, HEt 8 mg/kg i.v.
  HEt reporter dye monitored oxidation in prostatic tissue: no significant HEt reporter dye monitored oxidation is detected

## C[C@]1(O)CC[C@H]2[C@@H]3CCC4=CC(=O)CCC4=C3C=C[C@@]21C [metribolone, 17β-17-Hydroxy-17-methyl-estra-4,9,11-trien-3-one]
Androgen Receptor (AR); 0.05 nM metribolone (control)
  fluorescence score, geometric mean: 329
  fluorescence score, mean after logarithmic transformation: 5.80
Androgen Receptor (AR); 1 nM metribolone compared to 0.05 nM metribolone
  increase in the ratio of nuclear fluorescence intensities over the cytoplasmic intensities (AR IHC): 1.5 fold
Androgen Receptor (AR); 1 nM metribolone
  fluorescence score, geometric mean: 605
  fluorescence score, mean after logarithmic transformation: 6.41
Androgen Receptor (AR); high (1 nM) metribolone
  cells responding dramatically (nuclear localization of AR): 20%
LNCaP cells [1]; R1881 1 nM, 96 h
  putrescine, spermidine, N-acetyl spermidine and N-acetyl spermine levels: increased
  spermine level: markedly decreased spermine level
[5]
  SSAT gene expression (microarray): highly overexpressed gene
[6]
  ROS production (DCFH dye oxidation): high levels of ROS
SSAT; LNCaP cells stably transfected with SSAT siRNA (si22), 96 h R1881
  increase in the SSAT transcript: less than 2 fold
SSAT; LNCaP cells transfected only with the vector, 96 h R1881
  increase in SSAT mRNA level: over 8 fold
SSAT; LNCaP cells, 1 nM vs 0.05 nM R1881
  SSAT over-expression, dependence on R1881 concentration: over-expressed only in cells treated with 1 nM R1881
SSAT; R1881 treated LNCaP cells vs untreated control cells
  increase in SSAT mRNA level: > 30 fold
[7]
  nuclear and cytoplasmic ROS levels (v0 of DCFH dye oxidation): increase over time
LNCaP cells [3]; cells (si22) transfected with vector transcribing siRNA against SSAT
  R1881 induced ROS levels: only a minor increase in ROS levels

## Cc1c(C)c2c(c(C)c1O)CCC(C)(C)O2 [PMCoI, 2,2,5,7,8 pentamethyl 6-chromanol]
Prostate cancer cells
  activities against prostate cancer cells: considerable cytotoxic, anti-proliferative and also anti-androgenic activities
